Assay results as given in patent publication US11304944B2, “MetAP2 inhibitors and methods of treating obesity” (SynDevRx, Inc., priority 2013, dated 2022).
Several values for one entry are separate records, joined by “and”; a condition that tells them apart may be missing. Equal values may be shown once. Read-outs that look alike come from different tables or passages of the source.

System: DIO C57Bl6 mice
Settings: for Weight Change from day 1: Day 32; for Average BW: IP-GTT day 24; for Blood Glucose 120 / Blood Glucose 15 min / Blood Glucose 30 min / Blood Glucose 60 min / Blood Glucose 90 min / Blood Glucose Fasting: IP-GTT day 24, ± SEM; for CHOLESTEROL / HDL CHOLESTEROL / HDL/LDL ratio / LDL / TRIGLYCERIDE: blood day 32, ± SEM; for Epid. Fat / Fat % BW / Ing. Fat / Liver / RP Fat / Total Fat / avg B.W.: day 32; for Blood glucose: day 32, fasted three hours; for weekly food consumption, % of vehicle: day 9-29
Description: C57Bl6 male mice (N=6) fifteen weeks old with an average of weight of 42 g were ad libitum fed TD.06414 a high fat diet composed of 60% Kcal from fat (Harlan diet). […] Animals were weighed every other day. Food consumption was measured weekly. […] Each animal was weighed and a baseline fasted glucose measurement collected. Each animal was given a 1 gram per kilogram dose of dextrose as a 25% solution by intraperitoneal injection.

## poly[HPMA-co-MA-GFLG-N-(trans-4-aminocyclohexyl)carbamoylfumagillol] [Compound 16]
0.2 mg/kg q4d sc
  Group BW ± SEM, Day 32: 46.5 ± 0.65 g
  Weekly food consumption Day 1-8: 25.8 g
  Weekly food consumption Day 9-15: 22.6 g
  Weekly food consumption Day 15-22: 20.3 g
  Weekly food consumption Day 22-29: 19.7 g
  Weight Change from day 1: +10.5%
  Average BW: 43.4 g
  Blood Glucose 120: 241 ± 16.8 mg/dL
  Blood Glucose 15 min: 505 ± 33.9 mg/dL
  Blood Glucose 30 min: 446 ± 20.5 mg/dL
  Blood Glucose 60 min: 456 ± 25.9 mg/dL
  Blood Glucose 90 min: 341 ± 15.5 mg/dL
  Blood Glucose Fasting: 254 ± 5.8 mg/dL
  CHOLESTEROL: 253 ± 8.4 mg/dL
  HDL CHOLESTEROL: 117 ± 2.7 mg/dL
  HDL/LDL ratio: 4.9 ± 0.2
  LDL: 24 ± 1.1 mg/dL
  TRIGLYCERIDE: 158 ± 10.9 mg/dL
  Epid. Fat: 2.01 g
  Fat % BW: 13.0%
  Ing. Fat: 2.54 g
  Liver: 2.06 g
  RP Fat: 1.48 g
  Total Fat: 6.02 g
  avg B.W.: 46.50 g
  Blood glucose: 290 mg/dL
0.6 mg/kg q4d sc
  Group BW ± SEM, Day 32: 43.3 ± 0.42 g
  Weekly food consumption Day 1-8: 19.5 g
  Weekly food consumption Day 9-15: 21.5 g
  Weekly food consumption Day 15-22: 20.2 g
  Weekly food consumption Day 22-29: 18.4 g
  Weight Change from day 1: +2.9%
  Average BW: 40.9 g
  Blood Glucose 120: 192 ± 12.9 mg/dL
  Blood Glucose 15 min: 442 ± 50.0 mg/dL
  Blood Glucose 30 min: 441 ± 35.54 mg/dL
  Blood Glucose 60 min: 388 ± 56.7 mg/dL
  Blood Glucose 90 min: 302 ± 43.3 mg/dL
  Blood Glucose Fasting: 206 ± 14.9 mg/dL
  CHOLESTEROL: 210 ± 3.7 mg/dL
  HDL CHOLESTEROL: 106 ± 1.2 mg/dL
  HDL/LDL ratio: 5.4 ± 0.1
  LDL: 20 ± 0.3 mg/dL
  TRIGLYCERIDE: 116 ± 3.1 mg/dL
  Epid. Fat: 2.24 g
  Fat % BW: 13.9%
  Ing. Fat: 2.51 g
  Liver: 1.75 g
  RP Fat: 1.26 g
  Total Fat: 6.01 g
  avg B.W.: 43.32 g
  Blood glucose: 265 mg/dL
2 mg/kg q4d
  weekly food consumption, % of vehicle: 90%
2 mg/kg q4d sc
  Weekly food consumption Day 1-8: 14.3 g
  Weekly food consumption Day 9-15: 22.2 g
  Weekly food consumption Day 15-22: 19.9 g
  Weekly food consumption Day 22-29: 18.5 g
  CHOLESTEROL: 149 ± 4.7 mg/dL
  HDL CHOLESTEROL: 92 ± 2.6 mg/dL
  HDL/LDL ratio: 9.0 ± 0.4
  LDL: 10 ± 0.5 mg/dL
  TRIGLYCERIDE: 95 ± 8.7 mg/dL
2.0 mg/kg q4d sc
  Group BW ± SEM, Day 32: 38.8 ± 0.70 g
  Weight Change from day 1: −7.4%
  Average BW: 36.8 g
  Blood Glucose 120: 166 ± 6.4 mg/dL
  Blood Glucose 15 min: 388 ± 20.7 mg/dL
  Blood Glucose 30 min: 361 ± 24.3 mg/dL
  Blood Glucose 60 min: 327 ± 26.7 mg/dL
  Blood Glucose 90 min: 244 ± 24.0 mg/dL
  Blood Glucose Fasting: 198 ± 11.6 mg/dL
  Epid. Fat: 1.72 g
  Fat % BW: 11% and 11.4%
  Ing. Fat: 1.81 g
  Liver: 1.44 g
  RP Fat: 0.89 g
  Total Fat: 4.42 g
  avg B.W.: 38.82 g
  Blood glucose: 259 mg/dL
6 mg/kg q4d
  weekly food consumption, % of vehicle: 75%
6 mg/kg q4d sc
  Weekly food consumption Day 1-8: 9.0 g
  Weekly food consumption Day 9-15: 17.5 g
  Weekly food consumption Day 15-22: 17.8 g
  Weekly food consumption Day 22-29: 16.1 g
  CHOLESTEROL: 109 ± 2.6 mg/dL
  HDL CHOLESTEROL: 72 ± 1.3 mg/dL
  HDL/LDL ratio: 9.0 ± 0.5
  LDL: 8 ± 0.5 mg/dL
  TRIGLYCERIDE: 81 ± 13.6 mg/dL
6.0 mg/kg q4d sc
  Group BW ± SEM, Day 32: 33.6 ± 0.72 g
  Weight Change from day 1: −20.0%
  Average BW: 33.0 g
  Blood Glucose 120: 177 ± 9.3 mg/dL
  Blood Glucose 15 min: 473 ± 39.1 mg/dL
  Blood Glucose 30 min: 355 ± 23.8 mg/dL
  Blood Glucose 60 min: 324 ± 19.1 mg/dL
  Blood Glucose 90 min: 240 ± 6.7 mg/dL
  Blood Glucose Fasting: 185 ± 6.5 mg/dL
  Epid. Fat: 1.11 g
  Fat % BW: 10% and 9.7%
  Ing. Fat: 1.54 g
  Liver: 1.30 g
  RP Fat: 0.60 g
  Total Fat: 3.25 g
  avg B.W.: 33.60 g
  Blood glucose: 227 mg/dL
